The values that follow come from patent US4221682A, “Tetrapeptides having analgesic activity” (American Home Products Corporation, priority 1979, dated 1980).

Where two headings read alike, the source gives them in different places. Positions of bridges follow the written chain, without caps; N, C: chain ends. Non-standard residues stand in square brackets, D forms with d. Residues, ends and D or L forms follow the SMILES beside them. Chains are numbered I, II in the order given. NMeF = CN[C@@H](Cc1ccccc1)C(=O)O

For series [1] the following is noted: cited from earlier work; for activity when administered peripherally: peripheral administration.
The subject of series [2] is rats. As to conditions: cited from earlier work; for analgesia: injection in the brain ventricle in rats, fully reversible by naloxone.
Another series concerns mice. To be noted: central administration (Baxter et al.); cited from earlier work.
For the next series, the system named is mouse vas deferens. To be noted: cited from earlier work.
The test system of a further series is opiate receptor. To be noted: brain homogenates; cited from earlier work.
Another series has as its system guinea pig ileum. As to conditions: cited from earlier work.
The conditions of series [3]: central administration (Pert et al.); cited from earlier work.
Series [4] deals with rats. As to conditions: peripheral (i.v.), rats (Bajusz et al.); cited from earlier work.
For another series, the system named is male rats. Description: rat-tail flick test of D'Amour and Smith, intravenous administration. As to conditions: for Positive Responses/Total Possible Response: all time points. Type of series: in vivo. How it is done:
The holders are situated so that a high intensity light beam will shine on the tip of the rats tail. The light beam intensity is adjusted so that normal rats respond by removing their tails from the light stimulus within from 3 to 8 seconds. The average of three time readings for removal of a rats tail from the light beam, taken 20 minutes apart serves as a pre-drug control. The rats are selected for use based upon control readings that agree within one second. The compounds of this invention are then administered intravenously and the test performed at 15, 30 and 60 minutes to determine the animals reaction time which is compared with the control average and tested for significance. The number of rats showing analgesia at each time period out of the total group for each dose administered is noted as a ratio and the number of positive responses observed is relative to the total number of challenges for each group of rats.
For orientation: Hot-plate and tail-flick tests time the reaction to a heat stimulus.

On to H-Tyr-D-Ala-Gly-Phe-D-Leu-OH, for which the peripheral analgesic activity result in series [1] (peripheral administration (Wei et al.; Romer et al.)) was “exhibit peripheral analgesic activity”. The “antinociceptive and behavioral effects” value with rats [2] (rats, central administration (Baxter et al.)) is “exhibit antinociceptive and behavioral effects”; in the series on mice it was “exhibit antinociceptive and behavioral effects”.

For “H-Tyr-Gly-Gly-Phe-Leu-OH [leucine-enkephalin]”, the “activity when administered peripherally” value in series [1] is “inactive”. For the same molecule, the “block of electrically evoked contractions” value in the series on mouse vas deferens and with guinea pig ileum was “mimic the ability of morphine to block electrically evoked contractions” each time. Moreover, the “inhibition of stereospecific receptor binding of 3H-naloxone” value in the series with opiate receptor is “inhibit the stereospecific receptor binding”. Besides, in the series with rats [2], the analgesia entry is recorded as “induce a profound analgesia”.

As for H-Tyr-D-Ala-Gly-Phe-Met-NH2, the analgesia result in [3] is given as “long lasting analgesic”.

For H-Y[dM]GFP-NH2, in the series on rats [4], the analgesic activity entry is “peripheral (i.v.) analgesic activity”.

In the case of `CN(C(=O)CNC(=O)[C@@H](CSSC[C@@H](NC(=O)[C@@H](N)Cc1ccc(O)cc1)C(=O)NCC(=O)N(C)[C@@H](Cc1ccccc1)C(N)=O)NC(=O)[C@@H](N)Cc1ccc(O)cc1)[C@@H](Cc1ccccc1)C(N)=O` [Example 2, L-Tyrosyl-D-Cysteinyl-Glycyl-N-Methyl-L-Phenylalanyl Amide Disulfide Acetate] (I: H-Y[dC]G[NMeF]-NH2 / II: H-Y[dC]G[NMeF]-NH2; disulfide I:2-II:2), in the series with male rats (1.0 mg/kg i.v.), the “Respiration normal (number of rats)” value is reported as 5/5. For the same molecule, the “dead (number of rats)” value is recorded as 1/6 in the series with male rats (1.0 mg/kg i.v.) and 0/6 in the series on male rats (5.0 mg/kg i.v.). The “No. Analgesic/No. Tested” value is given as 3/6 in the series with male rats (1.0 mg/kg i.v., 15 minutes); 2/6 in the series on male rats (1.0 mg/kg i.v., 30 minutes); 1/5 in the series on male rats (1.0 mg/kg i.v., 60 minutes); 6/6 with male rats (5.0 mg/kg i.v., 15 minutes); 5/6 in the series with male rats (5.0 mg/kg i.v., 30 minutes); 5/6 in the series on male rats (5.0 mg/kg i.v., 60 minutes). The figures for the “Positive Responses/Total Possible Response” value with male rats (1.0 mg/kg i.v.) and with male rats (5.0 mg/kg i.v.) were 6/17 and 16/18, respectively. For the same molecule, the “Respiration very depressed (number of rats)” value with male rats (5.0 mg/kg i.v.) is recorded as 6/6.

Regarding H-Tyr-D-Ala-Gly-Phe-D-Met-NH2, in the series on rats [2] (rats, centrally administered (Fredrickson)), the analgesic activity result is “produced analgesic activity”.

Turning to “H-Tyr-Gly-Gly-Phe-Met-OH [methionine-enkephalin]”, the “activity when administered peripherally” value in series [1] was “inactive”. Besides, the “block of electrically evoked contractions” value in the series on mouse vas deferens and with guinea pig ileum was “mimic the ability of morphine to block electrically evoked contractions” throughout. In addition, the “inhibition of stereospecific receptor binding of 3H-naloxone” value in the series on opiate receptor was “inhibit the stereospecific receptor binding”. In the series with rats [2], the analgesia result is given as “induce a profound analgesia”.
